Laboratory results as given in US20240415855A1, “COMPOSITIONS AND METHODS RELATING TO USE OF PHOSPHATIDIC ACID TO RESCUE FETAL ALCOHOL SPECTRUM DISORDER (FASD) GROWTH RESTRICTION AND BLOOD VESSEL CONSTRICTION” (Wayne State University, priority 2023, published 2024).
Read-outs that look alike come from different tables or passages of the source.

How the values were obtained:
[1] = test system: uterine artery; test: Pressure arteriography of uterine artery (ACh-induced vasodilation) after in vivo treatment; set-up: species or system rat; settings: ethanol/alcohol group vs control, p<0.05
Procedure: (§1) The dams were then assigned into experimental groups. […] Rats were euthanized by decapitation while under isoflurane anesthesia.
Following euthanasia, the entirety of the uterus was excised and immediately placed in ice-cold HBS for pressure arteriography experiments. Uterine artery functional assessments were performed following uterine artery isolation using established procedures. Briefly, the uterine horn was transferred to a 200 mm petri dish with solidified Sylgard to facilitate tissue isolation and cleaning in ice-cold HBS. A 3-5 mm segment of the primary uterine artery was dissected between arterial bifurcations from the approximate center of the uterine horn. Surrounding adipose and connective tissues were carefully removed from the uterine artery segment. […] Intramural pressure was then increased to mimic in vivo pressures at 90 mm Hg, at which pressure the ACh concentration responses were measured. Vessels were pre-constricted with 10^−6 M Tbx as determined previously. […] The above treatment was followed by the administration of three-fold increasing concentrations of ACh from 10^−10 M up to 10^−5 M. Vascular response was recorded by established methods using Ionwizard software version 6.6 (Ionoptix LLC, Westwood, MA, USA) for at least 5 min, or until arterial diameter stabilized.

[2] = test system: endothelial nitric oxide synthase (eNOS); test: Uterine artery eNOS immunoblotting / immunofluorescence after in vivo treatment; set-up: species or system rat; settings: for Total eNOS levels in uterine artery: ethanol and/or PA treatment; for P-Ser1177 eNOS level in uterine artery: ethanol/alcohol-exposed vs control, P<0.05
Procedure: as §1
Immunoblotting was performed using standard laboratory procedures. Following euthanasia, the uterine arteries were isolated by separating the vein, and cleaning the adipose tissues in HBS, before flash freezing for immunoblot analysis. Tissues were first homogenized using a 4° C. cooled bead homogenizer (Benchmark Scientific, Sayreville, NJ, USA) and then quantified using BCA protein quantification assay. Next, 20 μg of the uterine artery sample protein was then loaded on to 4-20% mini-protean TGX gels (Bio-rad, Hercules, CA, USA). Following transfer to a PVDF membrane, P-Ser1177 eNOS (Novus Biologicals, Centennial, CO, USA), total eNOS (BD Biosciences, Franklin Lakes, NJ, USA), and β-Actin (Sigma Aldrich, St. Louis, MI, USA) were probed. Densitometry analysis was performed using AzureSpot (Azure Biosystems, Dublin, CA, USA).
Immunofluorescence assessments were performed using previously published protocols. In brief, maternal uterine arteries were sectioned at 8 μm with a Leica cryostat (CM1860, Leica Biosystems, Buffalo Grove, IL, USA). Sections were subsequently fixed with ice-cold methanol (30 min, −20° C.), and then rinsed in PBS, and incubated in 10% normal serum (60 min). This was followed by incubation with (1:100; p1177-eNOS; Cell Signaling and 1:250; total eNOS, BD Biosciences) primary antibody overnight at 4° C. in a humidified chamber. The sections were then incubated with goat anti-rabbit IgG secondary antibody (Alexa Fluor 488, Invitrogen, Carlsbad, CA, USA), for 1 h at room temperature. Digital images were captured with an Olympus BX63 […] that was equipped with U-HGLGPS fluorescent light source, ORCA-Flash 4.0 LT camera, Hamamatsu Photonics (Hamamatsu, Japan), and Olympus cellSens Dimension software Version 3.2 (Olympus, Tokyo, Japan).

[3] = test system: pregnant Sprague-Dawley rats; test: Maternal and fetal growth assessment in FASD rat model (binge alcohol with or without in vivo PA)
Procedure: (§2) Molecule administered: PA (#840857C, Avanti Polar Lipids) was air-dried under a gentle stream of nitrogen gas and resuspended in 1% BSA to make a 10^−2 M stock solution. PA was administered to pregnant rats in vivo at a dose of 4.5 mg/kg/day for alcohol dose of 4.5 g/kg body weight from gestation day 4 through 10 and 6 mg/kg/day for alcohol dose of 6 g/kg body weight from gestation day 11 through 19 or 20.
(§3) Timed pregnant Sprague-Dawley rats (8-12 weeks old), were purchased from Charles River (Wilmington, MA, USA) and arrived on GD 4, where they were housed in a temperature-controlled room (23° C.) with a 12:12 h light-dark cycle. The dams were acclimatized for a day before weighing and handling. The dams were then assigned into experimental groups. Four in vivo treatment groups were utilized: (1) a nutritional pair-fed control group (control), that served as a control for nutrition and for the gavage procedure. To control for the calories derived from alcohol, these pair-fed control rats were administered isocaloric maltose-dextrin (once-daily) via orogastric gavage. […] (3) An in vivo phosphatidic acid (PA) control group (control PA), to control for the in vivo PA supplement. […] (4) A binge alcohol in vivo PA group (alcohol PA), that received alcohol via intragastric gavage similar to those in the binge alcohol group along with the PA supplement. Daily PA doses were calculated based on the dam's weight at the time of administration (PA (μL)=0.2×dam weight (g) GD 5-10; PA (μL)=0.2105×weight (g) GD 11-19). Intake of food in the alcohol treatment group was measured, and an equivalent amount of food was given to the pair-fed control dams to account for additional nutritional factors. Rats were euthanized by decapitation while under isoflurane anesthesia.
(§4) Maternal weights and fetal weights were measured on GD 20-21, one day after the last treatment on GD 19-20, following euthanasia.
(§5) Maternal weight and fetal weight (unit of analysis is a dam or litter) were analyzed using two-way mixed ANOVA with alcohol as the between factor and PA as the within factor. Normality was tested using the Shapiro-Wilk normality test where appropriate. […] The data were considered significant if the p value was <0.05.

[4] = test system: pregnant Sprague-Dawley rats; settings: rat, in vivo
Procedure: as §2, §3, §4, §5

[5] = fetuses from ethanol-fed rats, P<0.05

Acetylcholine-induced uterine artery relaxation (vasodilation) [1]	Acetylcholine-induced uterine artery relaxation (vasodilation) ([1]; listed as alcohol)	P-Ser1177 eNOS level in uterine artery [2]	P-Ser1177 eNOS level in uterine artery ([2]; listed as Alcohol)	P-Ser1177 eNOS level in uterine artery ([2]; listed as Ethanol)	Average litter size ([3]; alcohol group)	Mean fetal weights ([3]; alcohol group vs control, p<0.0001)	Crown-rump length lower than pair-fed control [3, 5] [%]	Mean fetal weight lower than pair-fed control [3, 5] [%]	Molecule	Total eNOS levels in uterine artery [2]	Total eNOS levels in uterine artery ([2]; listed as alcohol)	Maternal body weights ([3]; GD 20-21, control, alcohol, control PA, alcohol PA groups)	Maternal body weights [4]
significantly impaired	significantly decreased	decreases	significantly reduced	significantly reduced	10.83±1.33	significantly lower	~8	~9	CCO [ethanol]	Neither ethanol treatment nor PA affected total eNOS levels	Neither alcohol nor PA had any effect on total eNOS	did not differ among the treatment groups	–
–	–	–	–	–	–	–	–	–	L-α-phosphatidic acid [PA]	–	–	–	did not differ among the treatment groups
